5 compounds from ChEMBL document CHEMBL3045834 (Med Chem Res, 2004) can be followed below.

Assay [1] deals with T1, Alpha-1D adrenergic receptor (Rattus norvegicus, UniProt P23944).
T1 sequence (P23944 whole entry): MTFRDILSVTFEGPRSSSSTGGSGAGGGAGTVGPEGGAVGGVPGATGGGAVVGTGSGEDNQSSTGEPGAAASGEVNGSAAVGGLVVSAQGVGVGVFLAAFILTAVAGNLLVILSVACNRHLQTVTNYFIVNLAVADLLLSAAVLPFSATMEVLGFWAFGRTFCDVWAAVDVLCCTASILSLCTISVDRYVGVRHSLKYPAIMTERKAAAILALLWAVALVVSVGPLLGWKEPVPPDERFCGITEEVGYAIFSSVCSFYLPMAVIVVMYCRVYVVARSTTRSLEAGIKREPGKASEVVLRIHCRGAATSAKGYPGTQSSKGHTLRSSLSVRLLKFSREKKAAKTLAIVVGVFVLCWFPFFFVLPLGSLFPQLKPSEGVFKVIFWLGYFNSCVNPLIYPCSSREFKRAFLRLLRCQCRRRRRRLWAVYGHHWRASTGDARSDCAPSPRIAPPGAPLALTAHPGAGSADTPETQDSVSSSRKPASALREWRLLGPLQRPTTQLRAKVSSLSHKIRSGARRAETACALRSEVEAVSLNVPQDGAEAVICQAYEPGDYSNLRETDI
Put plainly: Competitive antagonist activity at alpha1D adrenergic receptor in Rattus norvegicus (rat) aorta assessed as inhibition of (-)-noradrenaline-induced contraction. The settings on record: read-out: pA2 (converted).

For assay [2], the target named is T2, Alpha-1A adrenergic receptor (Homo sapiens, UniProt P35348).
T2 sequence (P35348 whole entry): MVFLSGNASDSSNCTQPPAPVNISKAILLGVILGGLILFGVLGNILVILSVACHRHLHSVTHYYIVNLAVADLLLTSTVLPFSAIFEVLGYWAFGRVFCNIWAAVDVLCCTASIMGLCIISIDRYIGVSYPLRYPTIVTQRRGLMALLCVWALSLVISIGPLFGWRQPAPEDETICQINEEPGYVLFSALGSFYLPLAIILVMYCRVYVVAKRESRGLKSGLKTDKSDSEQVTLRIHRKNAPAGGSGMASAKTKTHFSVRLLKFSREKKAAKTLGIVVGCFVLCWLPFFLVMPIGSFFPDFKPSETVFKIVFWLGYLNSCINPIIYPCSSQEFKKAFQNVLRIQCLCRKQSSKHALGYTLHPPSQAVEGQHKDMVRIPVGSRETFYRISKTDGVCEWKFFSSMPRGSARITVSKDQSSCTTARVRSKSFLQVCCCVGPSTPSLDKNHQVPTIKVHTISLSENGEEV
Briefly: Displacement of [3H]prazosin from Homo sapiens (human) alpha1A adrenergic receptor. (Loss of bound radioactivity is the signal in a displacement assay; it reports binding, not function.)

The species named for assay [3] is Rattus norvegicus. Put plainly: Selectivity ratio for antagonist activity at alpha1B adrenergic receptor in Rattus norvegicus (rat) spleen to antagonist activity at alpha1D adrenergic receptor in aorta. Type of assay: tissue-based.
In assay [4] the target is T3, Alpha-1D adrenergic receptor (Homo sapiens, UniProt P25100).
T3 sequence (P25100 whole entry): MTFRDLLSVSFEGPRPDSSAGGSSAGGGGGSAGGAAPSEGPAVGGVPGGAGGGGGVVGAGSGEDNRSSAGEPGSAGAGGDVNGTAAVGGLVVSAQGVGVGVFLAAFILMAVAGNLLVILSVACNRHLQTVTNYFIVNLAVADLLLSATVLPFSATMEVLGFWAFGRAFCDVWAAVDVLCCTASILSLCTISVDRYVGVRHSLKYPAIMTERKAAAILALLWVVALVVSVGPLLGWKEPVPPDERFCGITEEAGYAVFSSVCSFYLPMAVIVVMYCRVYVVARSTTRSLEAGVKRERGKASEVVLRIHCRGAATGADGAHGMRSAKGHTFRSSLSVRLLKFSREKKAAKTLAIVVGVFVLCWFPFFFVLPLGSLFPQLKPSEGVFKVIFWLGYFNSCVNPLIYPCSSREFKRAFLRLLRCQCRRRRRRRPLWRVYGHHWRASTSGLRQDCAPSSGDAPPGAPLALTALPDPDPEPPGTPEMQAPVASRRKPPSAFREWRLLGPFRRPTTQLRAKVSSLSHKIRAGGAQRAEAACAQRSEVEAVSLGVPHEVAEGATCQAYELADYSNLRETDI
Put plainly: Displacement of [3H]prazosin from Homo sapiens (human) alpha1D adrenergic receptor.

Assay [5] concerns the target T4, Alpha-1A adrenergic receptor (Rattus norvegicus, UniProt P43140).
T4 sequence (P43140 whole entry): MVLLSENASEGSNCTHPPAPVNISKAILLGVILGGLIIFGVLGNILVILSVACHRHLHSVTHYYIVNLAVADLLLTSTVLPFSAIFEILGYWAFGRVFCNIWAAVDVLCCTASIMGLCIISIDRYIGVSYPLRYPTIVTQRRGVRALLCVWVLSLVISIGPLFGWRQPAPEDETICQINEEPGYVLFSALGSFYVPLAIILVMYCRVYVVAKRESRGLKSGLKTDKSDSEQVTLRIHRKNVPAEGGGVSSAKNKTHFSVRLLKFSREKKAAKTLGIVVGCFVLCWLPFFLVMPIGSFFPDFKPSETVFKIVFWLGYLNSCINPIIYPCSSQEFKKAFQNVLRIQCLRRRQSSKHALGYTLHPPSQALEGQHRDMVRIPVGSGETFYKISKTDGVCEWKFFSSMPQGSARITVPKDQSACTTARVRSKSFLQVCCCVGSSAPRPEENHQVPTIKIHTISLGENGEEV
Put plainly: Competitive antagonist activity at alpha1A adrenergic receptor in Rattus norvegicus (rat) vas deferens assessed as inhibition of (-)-noradrenaline-induced contraction. The settings on record: read-out: pA2 (converted).

For assay [6], the species on record is Rattus norvegicus. Put plainly: Selectivity ratio for antagonist activity at alpha1D adrenergic receptor in Rattus norvegicus (rat) aorta to antagonist activity at alpha1A adrenergic receptor in vas deferens.
For assay [7], the target named is T5, Alpha-1B adrenergic receptor (Rattus norvegicus) (UniProt P15823).
T5 sequence (whole entry): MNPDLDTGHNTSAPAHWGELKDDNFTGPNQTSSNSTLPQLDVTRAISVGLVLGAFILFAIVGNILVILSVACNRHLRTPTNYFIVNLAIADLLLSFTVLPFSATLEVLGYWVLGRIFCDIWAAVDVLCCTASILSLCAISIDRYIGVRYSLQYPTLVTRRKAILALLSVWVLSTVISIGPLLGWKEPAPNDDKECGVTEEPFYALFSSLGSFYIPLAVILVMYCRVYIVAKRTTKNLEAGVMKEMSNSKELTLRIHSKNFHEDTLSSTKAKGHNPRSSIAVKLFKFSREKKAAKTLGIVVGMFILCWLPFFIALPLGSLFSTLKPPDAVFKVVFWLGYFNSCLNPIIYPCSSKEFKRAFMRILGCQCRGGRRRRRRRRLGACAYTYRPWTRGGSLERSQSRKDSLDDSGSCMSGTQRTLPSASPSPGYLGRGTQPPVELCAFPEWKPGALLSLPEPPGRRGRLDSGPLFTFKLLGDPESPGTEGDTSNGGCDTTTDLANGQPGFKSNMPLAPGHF
Briefly: Noncompetitive antagonist activity at alpha1B adrenergic receptor in Rattus norvegicus (rat) spleen assessed as inhibition of (-)-phenylephrine-induced contraction.

For assay [8], the species on record is Rattus norvegicus. Briefly: Selectivity ratio for antagonist activity at alpha1B adrenergic receptor in Rattus norvegicus (rat) spleen to antagonist activity at alpha1A adrenergic receptor in rat vas deferens. It is filed as tissue-based.
The target in assay [9] is T6, Alpha-1B adrenergic receptor (Homo sapiens, UniProt P35368).
T6 sequence (P35368 whole entry): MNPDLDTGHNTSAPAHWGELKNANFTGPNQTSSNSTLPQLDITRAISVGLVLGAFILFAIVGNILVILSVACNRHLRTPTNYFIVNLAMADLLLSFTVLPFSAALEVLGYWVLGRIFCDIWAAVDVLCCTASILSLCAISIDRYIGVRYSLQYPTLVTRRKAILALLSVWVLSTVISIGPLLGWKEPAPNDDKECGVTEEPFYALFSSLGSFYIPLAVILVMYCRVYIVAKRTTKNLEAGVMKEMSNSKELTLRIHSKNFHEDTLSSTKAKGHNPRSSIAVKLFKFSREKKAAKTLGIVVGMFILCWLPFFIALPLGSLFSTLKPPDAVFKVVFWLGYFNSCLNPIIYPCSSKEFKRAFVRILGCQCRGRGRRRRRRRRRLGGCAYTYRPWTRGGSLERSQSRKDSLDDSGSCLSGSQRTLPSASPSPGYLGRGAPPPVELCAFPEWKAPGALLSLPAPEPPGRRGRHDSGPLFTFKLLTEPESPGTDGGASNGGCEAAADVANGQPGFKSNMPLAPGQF
Put plainly: Displacement of [3H]prazosin from Homo sapiens (human) alpha1B adrenergic receptor.

Assay [10] addresses T7, Alpha-1A adrenergic receptor (Rattus norvegicus) (UniProt P43140).
T7 sequence (whole entry): T4 sequence (P43140 whole entry)
Briefly: Noncompetitive antagonist activity at alpha1A adrenergic receptor in Rattus norvegicus (rat) vas deferens assessed as inhibition of (-)-noradrenaline-induced contraction.

Assay [11] concerns the target T4, Alpha-1A adrenergic receptor. Put plainly: Antagonist activity at alpha1A adrenoreceptor in Rattus norvegicus (rat) small mesenteric artery. As to conditions: read-out: pA2 (converted).
Assay [12] addresses T6, Alpha-1B adrenergic receptor. Briefly: Binding affinity to alpha1B adrenoreceptor (unknown origin) by radioligand binding assay.

Turning to `COc1ccc(C(=O)N2CCN(c3nc(N)c4cc(OC)c(OC)cc4n3)[C@H]3CCCC[C@@H]32)o1`, the Kb was 89.1 nM in [1] and 141 nM in [5]. Moreover, the figures for the Ki in assay [2], in assay [4] and in assay [9] were 27.5 nM, 3.63 nM and 0.871 nM, respectively. Further, the Selectivity ratio amounted to 457 in the assay listed under Rattus norvegicus [3], 1.6 in the assay listed under Rattus norvegicus [6] and 724 in the assay listed under Rattus norvegicus [8]. In addition, in assay [7], the pKb (as a rule, the Kb on a negative log10 scale, so that one unit is a factor of ten) was 9.71.
Regarding `COc1cc2nc(N3CCN(C(=O)c4ccc(C)o4)[C@H]4CCCC[C@@H]43)nc(N)c2cc1OC`, in [1], the Kb was 91.2 nM. Further, the pKb turned out to be 6.67 in [10] and 9.28 in [7]. For the same compound, the Ki (in general, a measure of affinity in units of concentration, obtained from inhibition or displacement) is 23.4 nM in [2], 4.79 nM in [4] and 0.871 nM in assay [9]. Also, the results for the Selectivity ratio in the assay filed under Rattus norvegicus [3], in the assay listed under Rattus norvegicus [6] and in the assay filed under Rattus norvegicus [8] were 174, 2.3 and 407, respectively.
Regarding `COc1cc2nc(N3CCN(C(=O)c4ccc(Br)o4)[C@H]4CCCC[C@@H]43)nc(N)c2cc1OC`, in [1], the Kb was 58.9 nM. For the same compound, the pKb in assay [10] was 7.53; in assay [7], 9.83. Besides, the Ki was 3.47 nM in [2], 1.55 nM in assay [4] and 0.309 nM in [9]. The Selectivity ratio was 398 in the assay filed under Rattus norvegicus [3], 0.5 in the assay filed under Rattus norvegicus [6] and 199 in the assay listed under Rattus norvegicus [8].
For `COc1cc2nc(N3CCN(C(=O)c4ccco4)[C@H]4CCCC[C@H]43)nc(N)c2cc1OC` [(+)-CYCLAZOSIN], the Kb in [11] is 16.6 nM. Moreover, the Ki in assay [12] was 0.692 nM.
As to `COc1cc2nc(N3CCN(C(=O)c4ccc(C(C)=O)o4)[C@H]4CCCC[C@@H]43)nc(N)c2cc1OC`, in [1], the Kb was 214 nM. The pKb in assay [10] was found to be 7.37; in assay [7], 9.85. The Ki is 25.7 nM in assay [2], 7.41 nM in assay [4] and 1.38 nM in [9]. Moreover, the Selectivity ratio in the assay listed under Rattus norvegicus [3] was 1510; in the assay listed under Rattus norvegicus [6], 0.2; in the assay filed under Rattus norvegicus [8] it was 302.
